{"source": "patent US8735353B2", "about": "“Polypeptides and uses thereof” (priority 2009, dated 2014)", "key": {"[1]": {"test_system": "human citrate plasma", "test": "Clotting assays in plasma (aPTT, PT, TCT)", "type": "biochemical", "conditions": "20 μM peptide", "description": "(§1) All clotting times were analyzed using a coagulometer (Amelung, Lemgo, Germany). […] (PT-thromboplastin reagent (Trinity Biotech), TCT: Thrombin reagent (Technoclone)). To record the activated partial thromboplastin time (aPTT), 100 μl of a kaolin-containing solution (Technoclone) was add to the plasma-peptide mix and incubated for 200 sec before clot formation was initiated by adding 100 μl of 30 mM fresh CaCl2 solution. […] Cells were washed and resuspended in 100 μl PBS. Hundred microliter of fresh human citrate plasma were reconstituted with 100 μl of fresh 30 mM CaCl2 solution and pre-warmed for 60 sec. The clot formation was started by adding the hPBMNC. The same procedure was used to determine clotting times for whole blood."}, "[2]": {"test_system": "RAW 264.7 macrophages", "test": "LPS effects on macrophages in vitro, NO production (Griess reaction)", "type": "cell-based, mouse", "conditions": "for effect on NO production of LPS-stimulated macrophages: RAW 264.7, LPS", "protocol": "3.5×10^5 cells were seeded in 96-well tissue culture plates (Nunc, 167008) in phenol red-free DMEM (Gibco) supplemented with 10% FBS and antibiotics. Following 6 hours of incubation to permit adherence, cells were stimulated with 100 or 10 ng/mL E. coli (0111:B4) or P. aeruginosa LPS (Sigma), with and without peptide of various doses. The levels of NO in culture supernatants were determined after 24 hours from stimulation using the Griess reaction [38]. Briefly, nitrite, a stable product of NO degradation, was measured by mixing 50 μl of culture supernatants with the same volume of Griess reagent (Sigma, G4410) and reading absorbance at 550 nm after 15 min. Phenol-red free DMEM with FBS and antibiotics were used as a blank. A standard curve was prepared using 0-80 μM sodium nitrite solutions in ddH2O.\n3.5×10^5 RAW 264.7 cells were seeded in 96-well tissue culture plates (Nunc no. 167008) in phenol red-free DMEM (Gibco) supplemented with 10% FBS containing 1% Anti-Anti (Invitrogen). […] The level of NO in culture supernatants was determined after a period of 20 hours using the Griess reaction (27)ref. Briefly, Nitrite, a stable product of NO degradation, was measured by mixing 50 μl of culture supernatants with the same volume of Griess reagent (Sigma, G4410), and reading absorbance at 550 nm after 15 min. Phenol-red free DMEM with FBS and antibiotics were used as a blank. A standard curve was prepared using sodium nitrite at 0-80 μM in ddH2O.\n3.5×10^5 cells were seeded in 96-well tissue culture plates (Nunc, 167008) in phenol red-free DMEM (Gibco) supplemented with 10% FBS and antibiotics. […] The levels of NO in culture supernatants were determined after 24 hours from stimulation using the Griess reaction [25]. Briefly, nitrite, a stable product of NO degradation, was measured by mixing 50 μl of culture supernatants with the same volume of Griess reagent (Sigma, G4410) and reading absorbance at 550 nm after 15 min. […]"}, "[3]": {"test_system": "human peripheral blood monocytes", "test": "TNF-α assay in human peripheral blood monocytes", "type": "cell-based", "conditions": "10 ng/ml E. coli LPS", "description": "Cell supernatants were collected and stored at −20° C. […] Plasma was obtained by centrifuging at 400 g, 10 min and stored at −20° C. The TNF-α level was measured using a human TNF-Elisa Kit (Invitrogen)."}, "[4]": {"test_system": "RAW 264.7 cells", "test": "Cytokine release from LPS-stimulated RAW 264.7 cells", "type": "cell-based, mouse", "conditions": "10 ng/ml E. coli LPS", "description": "RAW 264.7 cells were stimulated with 10 ng/ml E. coli LPS and cytokines were analysed in the cell supernatants.\n(§2) The cytokines IL-6, IL-10, MCP-1, INF-γ, and TNF-α were measured in cell culture supernatants from RAW264.7 cells and plasma from mice injected with LPS or P. aeruginosa (with or without peptide treatment) using the Cytometric bead array; Mouse Inflammation Kit (Becton Dickinson AB) according to the manufacturer's instructions. All plasma samples were stored at −20° C. before the analysis."}, "[5]": {"test_system": "human monocytes", "test": "Clotting time, LPS-stimulated human monocytes added to citrate plasma", "type": "cell-based", "conditions": "concentrations similar to physiological thrombin (1.5 μM)", "description": "Whole blood was incubated with 10 ng/ml E. coli LPS+/−the indicated concentrations of peptide. The clotting reaction in human citrated plasma was initiated by adding the blood cells. […] Human monocytes were stimulated with LPS and/or peptides, and the clotting times were determined by adding the treated cells to human citrate plasma supplemented with CaCl2\nas §1"}, "[6]": {"test_system": "LPS-induced shock", "test": "LPS model in vivo, E. coli LPS (Example B)", "design": "species or system C57BL/6 mice", "description": "Male C57BL/6 mice (8 weeks, 21+/−5 g), were injected intraperitoneally with 18 mg E. coli 0111:B4 LPS or 36 mg P. aeruginosa LPS (Sigma) per kg of body weight. […] Survival and status was followed during seven days. For SEM and histochemistry, mice were sacrificed 20 h after LPS challenge, and lungs, liver, kidney, and spleen were removed and fixed. For determination of cytokine levels in mouse plasma, animals were sacrificed 8 h and 20 h after LPS injection. The blood was collected immediately by cardiac puncture. These experiments were approved by the Laboratory Animal Ethics Committee of Malmö/Lund.\nMouse blood (anti-coagulated with EDTA) was taken by cardiac puncture and analysed with the VetScan HM5 System (TRIOLAB). The number of white blood cells, percentages of lymphocytes, neutrophils, monocytes and platelets were determined.\nas §2\nFor scanning electron microscopy lungs were taken 20 h after LPS injection. […] Specimens were washed with cacodylate buffer, and dehydrated with an ascending ethanol series from 50% (vv) to absolute ethanol. The specimens were then subjected to critical-point drying in carbon dioxide, with absolute ethanol as intermediate solvent, mounted, on aluminium holders, sputtered with 30 nm palladium/gold and examined in a JEOL JSM-350 scanning electron microscope"}, "[7]": {"test_system": "E. coli", "test": "Radial diffusion assay (RDA)", "type": "cell-based", "description": "Essentially as described earlier, bacteria were grown to mid-logarithmic phase in […] of full-strength (3% w/v) trypticase soy broth (TSB) (Becton-Dickinson). The microorganisms were then washed once with 10 mM Tris, pH 7.4. Subsequently, 4×10^8 cfu were added to 15 ml of the underlay agarose gel, consisting of 0.03% (w/v) TSB, 1% (w/v) low electroendosmosis type (EEO) agarose (Sigma-Aldrich) and 0.02% (v/v) Tween 20 (Sigma-Aldrich). The underlay was poured into a Ø 144 mm petri dish. After agarose solidification, 4 mm-diameter wells were punched and 6 μl peptide solution of required concentration added to each well. Plates were incubated at 37° C. for 3 h to allow peptide diffusion. The underlay gel was then covered with 15 ml of molten overlay (6% TSB and 1% Low-EEO agarose in distilled H2O). Antimicrobial activity of a peptide was visualized as a zone of clearing around each well after 18-24 h of incubation at 37° C.\nEssentially as described earlier bacteria were grown to mid-logarithmic phase in 10 ml of full-strength (3% w/v) trypticase soy broth (TSB) (Becton-Dickinson, Cockeysville, Md.). The microorganisms were then washed once with 10 mM Tris, pH 7.4. […]"}, "[8]": {"test_system": "E. coli ATCC 25922", "test": "Viable count assay", "type": "cell-based", "conditions": "E. coli ATCC 25922, proteins and peptides at 3 and 6 μM", "protocol": "E. coli bacteria were grown to mid-logarithmic phase in Todd-Hewitt (TH) medium. They were then washed and diluted in 10 mM Tris, pH 7.4 containing 5 mM glucose. […] To quantify the bactericidal activity, serial dilutions of the incubation mixtures were plated on TH agar, followed by incubation at 37° C. overnight and the number of colony-forming units was determined. 100% survival was defined as total survival of bacteria in the same buffer and under the same condition in the absence of peptide.\nE. coli ATCC 25922 bacteria were grown to mid-logarithmic phase in Todd-Hewitt (TH) medium. Bacteria were washed and re-suspended in 10 mM Tris, pH 7.4 containing 5 mM glucose. […] Serial dilutions of the incubation mixtures were plated on TH agar, followed by incubation at 37° C. overnight and cfu determination.\nE. coli ATCC 25922 bacteria were grown to mid-logarithmic phase in Todd-Hewitt (TH) medium (Becton and Dickinson, Maryland, USA). The microorganisms were then washed and diluted in 10 mM Tris, pH 7.4 containing 5 mM glucose. […] To quantify the bactericidal activity, serial dilutions of the incubation mixtures were plated on TH agar, followed by incubation at 37° C. overnight and the number of colony-forming units was determined. […] Significance was determined using the statistical software SigmaStat (SPSS Inc., Chicago, Ill., USA)."}}, "data": [{"substance": "HVFRLKKWIQKVIDQFGE (HVF18) [endogenously produced C-terminal thrombin peptide]", "values": [{"measurement": "activated partial thromboplastin time (aPTT)", "setting": "[1]", "value": "significantly prolong"}, {"measurement": "prothrombin time (PT)", "setting": "[1]", "value": "not significantly affected"}, {"measurement": "thrombin clotting time (TCT)", "setting": "[1]", "value": "not significantly affected"}, {"measurement": "concentration completely eliminating LPS-induced NO-responses", "setting": "[2]; RAW 264.7, 10 ng/ml LPS", "value": "much higher doses"}, {"measurement": "TNF-α production", "setting": "[3]", "value": "damped TNF-α production"}, {"measurement": "effect on IL-10", "setting": "[4]", "value": "significant up-regulation of IL-10"}, {"measurement": "effect on cytokines at 10 μM", "setting": "[4]; peptide 10 μM", "value": "not"}, {"measurement": "clotting time with LPS-stimulated monocytes (TF-mediated coagulation)", "setting": "[5]", "value": "less potent"}, {"measurement": "weight", "setting": "[6]; 0.5 mg peptide, followed 7 days", "value": "full recovery of weight"}, {"measurement": "survival in LPS-induced shock", "setting": "[6]; 18 mg/kg E. coli LPS i.p., 0.5 mg peptide 30 minutes later", "value": 100, "unit": "%"}, {"measurement": "proinflammatory IL-6, IFN-γ, TNF-α, MCP-1 in blood", "setting": "[6]; 8 and 20 h after LPS injection, 0.5 mg peptide", "value": "significant reductions"}, {"measurement": "platelet counts", "setting": "[6]; 8 and 20 h after LPS, 0.5 mg peptide", "value": "significantly increased platelets"}, {"measurement": "IL-10 in blood", "setting": "[6]; 8 h after LPS injection", "value": "increase in IL-10"}]}, {"substance": "VFRLKKWIQKVI (12-mer thrombin-derived peptide) [VFR12]", "values": [{"measurement": "bactericidal potency in RDA at high salt", "setting": "[7]; E. coli ATCC 25922, 0.15M NaCl, peptide at 100 μM", "value": "retained good bactericidal potency"}, {"measurement": "effect on NO production of LPS-stimulated macrophages", "setting": "[2]", "value": "not able to block LPS effects"}]}, {"substance": "VFRLKKWIQKVIDQFGE (VFR17)", "values": [{"measurement": "antibacterial activity in viable count assay", "setting": "[8]", "value": "significant antibacterial activities"}]}, {"substance": "WFFFYYLIIGGGVVTHQQRKKKKDE (WFF25 peptide) [control peptide, same composition as GKY25, amino acids sorted after hydrophobicity, reference compound]", "values": [{"measurement": "effect on NO production of LPS-stimulated macrophages", "setting": "[2]", "value": "did not show anti-inflammatory effects"}, {"measurement": "survival in LPS-induced shock", "setting": "[6]; 500 μg i.p., followed 7 days", "value": "does not increase survival"}]}, {"substance": "thrombin", "values": [{"measurement": "antimicrobial activity of intact protein in RDA", "setting": "[7]; E. coli, low-salt conditions, not digested with neutrophil elastase", "value": "inactive"}]}]}
